Test results taken from US11246320B2, “Casein glycomacropeptide (CGMP) oligomers” (Chr. Hansen A/S, priority 2017, dated 2022).

Columns and labels:
[1] = cited from earlier work; for pKsp: comparison values
[2] = Stability of curcumin, free versus encapsulated (absorbance at 420 nm); assay type: physicochemical
Experimental: To prepare a stock solution of curcumin, 100 mg of commercial turmeric powder was suspended in 10 mL of ethanol and vortex and kept for inversion for 2 hours. The tube was closed and covered with aluminum foil to prevent the degradation of curcumin by oxidation and UV light. Next, the suspension was centrifuged at 13200 rpm for 30 minutes to separate the insoluble particles form the ethanol solubilized curcumin. The supernatant was carefully collected and this was used as a stock solution of curcumin in ethanol. The stock solution was adjusted with ethanol so that a 100 x dilution of this stock solution in MQ-Water gave an absorbance of 2±0.1 at 420 nm, when measured immediately after the dilution. If stored at ambient conditions, the absorbance decreases rapidly due to degradation of curcumin by oxidation and light.
To load curcumin 10 μL of curcumin stock solution was added to 990 μL of buffer (±lactase) which was used for encapsulation. The loaded curcumin was not removed by repeated washing and this indicated good encapsulation and stabilization. The microcapsule suspension with encapsulated curcumin appeared yellow.

O=P([O-])([O-])[O-].O=P([O-])([O-])[O-].[Ca+2].[Ca+2].[Ca+2] [CaP, Ca3(PO4)2]
Ksp ([1]; 25° C.): 2.07×10^−33

O=C([O-])[O-].[Ca+2] [calcium carbonate]
pKsp [1]: 8.47

[Ca+2].[OH-].[OH-] [calcium hydroxide]
pKsp [1]: 5.3

COc1cc(/C=C/C(=O)CC(=O)/C=C/c2ccc(O)c(OC)c2)ccc1O [curcumin]
increase of half-life ([2]; encapsulated in CaP particles stabilized by oligo-CGMP or in liposomes, versus storage at ambient conditions): 5-10 times
stability as indicated by half and quarter-life ([2]; encapsulated in oligo-CGMP micelles): significantly increased
